According to paper PMC12948223, “HSP70 Interactome‐Mediated Proteolysis Targeting Chimera (HSP70‐PROTAC) for Ferroptosis‐Driven Cancer Treatment” (Advanced Science, 2025):

Assays:
[1] = target: T1, human Hsc70 (Homo sapiens, UniProt P11142); experiment: SPR binding to immobilized Hsc70 (binary); conditions: immobilized Hsc70, 25 °C
T1 construct: purchased MedChemExpress HY-P73915A
Experimental: The SPR data was generated by our Shared Instrumentation Core Facility at the Hangzhou Institute of Medicine (HIM), Chinese Academy of Sciences. The in vitro binding affinity of compound GDAz‐3 to recombinant proteins (Hsc70, MedChemExpress, #HY‐P73915A; GPX4, Cayman, Item No. 26 906) was evaluated using a Biacore 8K system (Cytiva (GE)) with the method of LMW multi‐cycle kinetics/affinity. Pipelines and chips were flushed with PBS (pH 7.4) running buffer, and then, human Hsc70 was immobilized on a CM5 sensor chip. Analysis was performed at a flow rate of 30 µL min^−1 at 25 °C with the injection of incremental concentrations of compounds dissolved in buffer solution (the final concentration of DMSO was 5%). For ternary‐complex binding measurements, Hsc70 was immobilized on a CM5 sensor chip, and compound GDAz‐3 at a concentration of 1 µM was preincubated with GPX4. The binding and dissociation durations were recorded as response unit values for 120 and 120 s in succession, respectively. Finally, the data were analyzed by Biacore evaluation software with the method of LMW multi‐cycle kinetics/affinity.

[2] = Pharmacokinetic study in ICR mice; assay type: in vivo; conditions: mouse; male ICR mice, IP, 30 mg/kg, plasma
Experimental: To evaluate the in vivo pharmacokinetic (PK) profile of the GDAz‐3 and explore its therapeutic potential, a single intraperitoneal (IP) injection (30 mg kg^−1) was conducted in male ICR mice. Plasma samples were collected at predetermined time points and analyzed using LC‐MS/MS.
The tested compound GDAz‐3 was IP administered to ICR mice (male, n = 3 per time‐point). Blood samples were collected at 0.0833, 0.25, 0.5, 1, 2, 4, 8, and 24 h after IP administration (30 mg kg^−1) and then centrifuged at 6800 g for 6 min at 4 °C to obtain plasma, which were stored at −80 °C until analysis The compound concentrations in plasma were determined by liquid chromatography‐tandem mass spectrometry (API5000 LC‐MS/MS).

[3] = target: T2, GPX1 (Homo sapiens, UniProt P07203); experiment: Western blot of GPX1 in HT1080 cells; assay type: cell-based; conditions: 24 h
T2 construct: endogenous in cells; host or cells: HT1080
T2 sequence (P07203 1-203): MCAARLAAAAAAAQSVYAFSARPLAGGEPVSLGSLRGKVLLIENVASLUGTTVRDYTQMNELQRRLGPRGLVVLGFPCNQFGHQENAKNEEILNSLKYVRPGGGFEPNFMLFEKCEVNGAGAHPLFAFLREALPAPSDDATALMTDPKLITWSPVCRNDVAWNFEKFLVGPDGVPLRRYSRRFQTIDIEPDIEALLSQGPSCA

[4] = target: T3, GPX4 (Homo sapiens, UniProt P36969); experiment: GPX4 degradation by western blot in MDA-MB-231 cells; assay type: cell-based; parameters: determine the changes in the endogenous levels of GPX4 by western blot assay; endogenous in cells; conditions: 24 h
T3 sequence (P36969 1-170 isoform P36969-2): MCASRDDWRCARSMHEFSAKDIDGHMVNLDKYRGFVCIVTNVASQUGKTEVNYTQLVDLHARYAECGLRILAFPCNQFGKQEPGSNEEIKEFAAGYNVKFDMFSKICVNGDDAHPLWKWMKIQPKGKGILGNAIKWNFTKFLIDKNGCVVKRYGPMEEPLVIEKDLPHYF
Experimental: To further confirm this degradation efficacy, an in‐cell western (ICW) assay, a quantitative immunofluorescence cell‐based technique, was performed to quantify the relative expression level of GPX4 after treatment with GDAz‐3 for 24 h. […] Given the promising GPX4 degradation activity of GDAz‐3, we extended our evaluation to additional ferroptosis‐sensitive cell lines, including triple‐negative breast cancer cells (MDA‐MB‐231) and melanoma cells (mouse B16‐F10). […] Based on the observation that GDAz‐3 was particularly effective in HT1080 cells, we selected this cell line for further degradation mechanism and ferroptosis pharmacodynamics studies.
Cells were seeded at a density of 4 × 10^5 cells well^−1 in 6‐well plates and allowed to incubate overnight. Cells were incubated with the indicated treatments. Thereafter, the cells were collected and lysed with RIPA buffer containing serine protease and phosphatase inhibitors for 30 min on ice. Proteins were quantified by using a BCA protein assay kit (Beyotime). […] Ultimately, the membrane was washed five times, and the antibody‐protein complexes were visualized using an ECL luminescence reagent (Biosharp, Shanghai, China). The relative intensities of the bands were analyzed by ImageJ and normalized to a loading control.

T1 sequence (P11142 whole entry): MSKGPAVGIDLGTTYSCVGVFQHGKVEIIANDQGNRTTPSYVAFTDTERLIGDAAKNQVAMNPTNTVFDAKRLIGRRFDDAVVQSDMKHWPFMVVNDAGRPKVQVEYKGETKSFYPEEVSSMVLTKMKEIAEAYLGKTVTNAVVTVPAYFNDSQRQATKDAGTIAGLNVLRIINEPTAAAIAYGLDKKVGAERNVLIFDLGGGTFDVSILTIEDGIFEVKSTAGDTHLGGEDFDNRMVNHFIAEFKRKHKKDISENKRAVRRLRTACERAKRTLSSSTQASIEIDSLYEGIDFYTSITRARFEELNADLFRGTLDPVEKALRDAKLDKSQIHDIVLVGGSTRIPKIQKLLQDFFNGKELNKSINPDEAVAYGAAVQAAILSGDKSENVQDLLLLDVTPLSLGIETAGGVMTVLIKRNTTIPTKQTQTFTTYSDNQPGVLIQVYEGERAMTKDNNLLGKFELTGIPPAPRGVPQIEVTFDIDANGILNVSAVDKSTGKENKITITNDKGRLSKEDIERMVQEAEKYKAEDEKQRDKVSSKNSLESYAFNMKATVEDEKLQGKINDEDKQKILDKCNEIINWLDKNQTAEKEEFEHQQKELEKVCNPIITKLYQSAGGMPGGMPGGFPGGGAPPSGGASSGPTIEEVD

COc1ccc(-c2nc(-c3cc(C(F)(F)F)cc(C(F)(F)F)c3)n(Cc3ccc(C(=O)NCCOCCOCCOCCn4cc(COc5ccc(N(C(=O)CCl)C(C(=O)NCCc6ccccc6)c6cccs6)cc5Cl)nn4)cc3)c2-c2ccc(OC)cc2)cc1 (stereo not drawn) [GDAz-3, 4-((2-(3,5-bis(trifluoromethyl)phenyl)-4,5-bis(4-methoxyphenyl)-1H-imidazol-1-yl)methyl)-N-(2-(2-(2-(2-(4-((2-chloro-4-(2-chloro-N-(2-oxo-2-(phenethylamino)-1-(thiophen-2-yl)ethyl)acetamido)phenoxy)methyl)-1H-1,2,3-triazol-1-yl)ethoxy)ethoxy)ethoxy)ethyl)benzamide]
Kd [1]: 18 nM | AUC(0-inf) [2]: 3140 ng·h/mL | AUC(0-t) [2]: 2450 ± 939 ng·h/mL | Cmax [2]: 201 ng/mL | MRT inf [2]: 15.5 ± 1.31 h | Tmax [2]: 4 h | half-life [2]: 10.2 h | Effect on GPX1 protein [3]: did not show a significant effect | GPX4 degradation [4]: effectively induce the degradation of GPX4 to varying extents
